According to ChEMBL document CHEMBL1157539, “Thousands of chemical starting points for antimalarial lead identification” (Nature, 2010):

Tested on: Plasmodium falciparum
Assay: GSK_TCMDC: Inhibition of Plasmodium falciparum 3D7 in whole erythrocytes, using parasite LDH activity as an index of growth.
Format: functional, organism-based
Details: Plasmodium falciparum, 3D7

Row | SMILES | XC50
1 | Cc1ccc2nc(C)cc(N/N=C/c3cccc([N+](=O)[O-])c3)c2c1 | 876 nM
2 | O=C(/C=C/c1ccc(Cl)c(Cl)c1)NCCCCCN1CCC(c2c[nH]c3ccccc23)CC1 | 781 nM
3 | Cc1ccc(C2=NNC3(S2)C(=O)Nc2ccc(C)cc23)cc1 (stereo unspecified) | 1020 nM
4 | Cc1ncc([N+](=O)[O-])n1CCOC(=O)NC(NCC1COc2ccccc2O1)C(Cl)(Cl)Cl (stereo unspecified) | 223 nM
5 | O=C(Nc1ccc(C(F)(F)F)cc1)c1ccc(NCCCN2CCCCCC2)c([N+](=O)[O-])c1 | 315 nM
6 | COc1ccc(-c2nc3c(NCc4ccccc4)nccc3[nH]2)c(OC)c1 | 778 nM
7 | CC(=O)c1c[nH]c(C(=O)Nc2ccc(-c3cn4ccccc4n3)cc2)c1 | 890 nM
8 | O=C(NCc1cccc2ccccc12)c1ccc(CNC2CCN(Cc3ccccc3)CC2)cc1 | 838 nM
9 | CCn1cc(CN2CCCC(C(=O)Nc3ccc(-c4nc5ccccc5[nH]4)cc3)C2)cn1 (stereo unspecified) | 927 nM
10 | CCn1c(Cc2ccccc2)nnc1Sc1ccc([N+](=O)[O-])c(C#N)c1 | 1010 nM
11 | COc1ccc(CCN(C)CCOc2ccc(NC(=O)COc3ccc4sc5ccccc5c(=O)c4c3)cc2)cc1OC | 1100 nM
12 | Cc1cccc(CNc2nc(C)cc(N[C@@H](Cc3ccccc3)C(=O)NC3CCCC3)n2)c1 | 653 nM
13 | c1ccc(CN2CCN(c3cc(-c4cncc(-c5ccccc5)c4)nc(-c4ccccc4)n3)CC2)cc1 | 1040 nM
14 | Cc1[nH]c(C)c(-c2ccc(OCc3cc(F)cc(F)c3)nc2)c(=O)c1Cl | 86.8 nM
15 | CSc1ccc2ccccc2c1CCNCCCCNCCc1c(SC)ccc2ccccc12 | 408 nM
16 | CCOC(=O)c1ccc(COc2ccc(C)nc2)cc1 | 542 nM
17 | CC[C@H]1CN(Cc2cccc(O)c2)CC[C@H]1CCCc1ccnc2ccc(O)cc12 | 534 nM
18 | Cc1cc(=NN=Cc2ccc(Cl)cc2)c2cc(C(F)(F)F)ccc2[nH]1 | 920 nM
19 | COc1ccccc1CNc1ccnc(NCCc2cccc(C(F)(F)F)c2)n1 | 925 nM
20 | COc1ccc(NC(=O)NC2CCN(c3ccnc4ccccc34)C2)cc1 (stereo unspecified) | 875 nM
21 | COc1ccc(CNc2cc(C)nc3sc4c(c23)CCC2(C4)OCCO2)cc1 | 953 nM
22 | CCCC(C)Nc1nc(C)cc(N[C@@H](Cc2ccccc2)C(=O)Nc2ccccc2)n1 (stereo partly specified) | 863 nM
23 | O=c1cc(NCCCNCc2cccc(I)c2)[nH]c2ccccc12 | 1020 nM
24 | Cc1c(N)ccc2[nH]c(-c3ccc(N)cc3)nc12 | 1210 nM
25 | Nc1nc(N)c2c(ccc3nn(Cc4ccccc4)cc32)n1 | 215 nM
26 | CCCCNc1cc(C)nc(NCc2ccccc2)n1 | 975 nM

Row | SMILES | XC50
27 | COc1ccc2nccc([C@@H](O)CN3CCC(NCc4cc5ccccc5o4)CC3)c2c1 | 658 nM
28 | O=C(N[C@H]1CCN(Cc2ccc(OCCN3CCCC3)c(Cl)c2)C1)c1ccc(Cl)c(Cl)c1 | 921 nM
29 | N#Cc1cccc(C(O)C2CN(CCC3CCCCC3)CCC2(O)c2ccccc2)c1 (stereo unspecified) | 129 nM
30 | CC(=O)c1ccc(-c2ccc(C(=O)NCCCCN3CCC(c4ccc5c(c4O)CCCC5)CC3)cc2)cc1 | 762 nM
31 | CC(Cc1ccc(SCCSc2ccccc2)cc1)NCC(O)c1cccc(Cl)c1 (stereo unspecified) | 367 nM
32 | CC[C@H](C)CNC(=O)c1cncc(-c2ccc(CNCCOc3ccccc3)cc2)c1 | 1110 nM
33 | OCCc1ccc(Nc2nccc(-c3nnc4ccccn34)n2)cc1 | 901 nM
34 | C=CC[C@H](C[C@H](O)[C@H](Cc1ccccc1)NC(=O)c1ccc(-n2cccn2)cc1)C(=O)NC1CCCCC1 | 810 nM
35 | Cc1cc2c(cc1C(F)(F)F)N(C(=O)Nc1cccc(C(=O)NC3CCN(Cc4ccccc4)CC3)c1)CC2 | 912 nM
36 | CSc1cccc(Nc2nc3ccc(S(=O)(=O)NC(C)C(C)C)cc3n2[C@H](C)C(C)(C)C)c1 (stereo partly specified) | 446 nM
37 | NC1=NC2(CCCCC2)N(OCCCCCCC2CCCCC2)C(N)=N1 | 356 nM
38 | CC1(C)N=C(N)N=C(N)N1c1ccccc1 | 327 nM
39 | COc1c(C2CCN(CCCCNC(=O)c3ccc(-c4ccc(C(=O)C(F)(F)F)cc4)cc3)CC2)ccc2c1CCCC2 | 1100 nM
40 | Cc1cccc2nc(-c3cccc(-c4cccc(NC(=O)Cc5ccc[n+]([O-])c5)c4)c3)[nH]c12 | 635 nM
41 | COc1cc(C(=O)NC2CCC(CN3CCC(c4c[nH]c5ccccc45)CC3)CC2)cc(Cl)n1 (stereo unspecified) | 688 nM
42 | N#Cc1cccc(/C=C/C(=O)NC2CCC(CCN3CCc4ccc(-c5cnccn5)cc4CC3)CC2)c1 (stereo unspecified) | 773 nM
43 | COc1ccc2nccc(NCC3(O)CCC(NCc4cc5c(cn4)OCCO5)CC3)c2n1 (stereo unspecified) | 664 nM
44 | CCCCCCNC(=O)C1Cc2c([nH]c3ccc(Br)cc23)C2(CCN(CCc3ccccc3)CC2)N1 (stereo unspecified) | 788 nM
45 | Cc1ccc(-c2cccc3c(NC(=O)Nc4ccc5nccc(N6CCN(C)CC6)c5c4)cccc23)cn1 | 352 nM
46 | COc1cccc(CNC(=O)NC2CCN(c3ccnc(Nc4cc(OC)c(OC)c(OC)c4)n3)C2)c1 (stereo unspecified) | 713 nM
47 | COc1ccc(-c2cc(C(F)(F)F)n3ncc(C(=O)Nc4cc(C)ccc4O)c3n2)cc1OC | 133 nM
48 | CN(C)CCCN1CCN(C(=O)c2cccc(-c3noc(C(F)(F)F)n3)c2)CC1 | 353 nM
49 | CCN(CC)c1nc(N)c2c(N)nc3c(c2c1C#N)C(=O)CN3Cc1ccccc1 | 70.8 nM
50 | Cc1ccccc1C1CCN(C2CCC(NC(=O)/C=C/c3ccc(C(F)(F)F)cc3F)CC2)CC1 (stereo unspecified) | 902 nM
51 | COc1cc(C)nc2ccc(NC(=O)COCC(=O)Nc3ccc4nc(C)cc(OC)c4c3)cc12 | 917 nM
52 | Cc1cccc(-n2c(=O)c3c4c(sc3n3c(SCCC(C)C)nnc23)CCCC4)c1 | 763 nM

Row | SMILES | XC50
53 | Clc1ccccc1/C=C/c1cncnc1Nc1ccc2[nH]c(Cc3ccccc3)nc2c1 | 915 nM
54 | COc1ccc(Cn2c(Nc3cccc(C(F)(F)F)c3)nc3cc(C(=O)NC(C)C)cnc32)cc1Cl | 973 nM
55 | O=C(Nc1ccc(Cl)cn1)c1sc2ccccc2c1O | 1040 nM
56 | Cc1cc(C(F)(F)F)n2nc(C(=O)N(C)Cc3cncn3Cc3ccc(F)cc3)cc2n1 | 832 nM
57 | FC(F)(F)c1ccc(/C=C/c2cncnc2Nc2ccc3[nH]c(Cc4ccccc4)nc3c2)cc1 | 608 nM
58 | CCCN(Cc1nnc(-c2ccco2)o1)C(=O)C1CCN(c2ncc(C(F)(F)F)cc2Cl)CC1 | 691 nM
59 | CC(C)CCN1CCC(Oc2ccc(NC(=O)c3ccsc3)cc2Cl)CC1 | 1040 nM
60 | Cc1cc(=NN=CC=Cc2ccccc2)c2cc(F)ccc2[nH]1 | 734 nM
61 | Cc1ccc(O)c(CN2CCCC(COC(c3ccc(F)cc3)c3ccc(F)cc3)C2)c1 (stereo unspecified) | 715 nM
62 | CCOc1ccc(-c2nc(NC(=O)CS(=O)(=O)c3ccccc3)sc2C)cc1 | 510 nM
63 | O=C(Nc1cccc(-c2csc(NC(=O)c3ccc4ccccc4c3)n2)c1)c1ccc2ccccc2c1 | 711 nM
64 | Cc1nc2nc(N)nc(N)c2c(C)c1Cc1cccc(C#N)c1 | 924 nM
65 | COc1ccc2nccc([C@@H](O)CN3CCC(NCc4ccc5c(c4)sc(=O)n5C)CC3)c2c1 | 258 nM
66 | CCCNC(=O)C1Cc2cc(OC)c(OC)cc2C2(N1)C(=O)N(Cc1cccc(OC)c1)c1ccccc12 (stereo unspecified) | 863 nM
67 | CC(=O)Nc1nnc(SCc2c(C)cc(C(C)(C)C)cc2C)s1 | 704 nM
68 | O=[N+]([O-])c1cccc(C=NNc2nc(=Nc3ccccc3)[nH]c(=Nc3ccccc3)[nH]2)c1 | 968 nM
69 | Oc1ccc(Nc2nc(N3CCCC3)c3ccccc3n2)cc1 | 270 nM
70 | CCN(CC)CCCN(C(=O)Nc1ccc(C#N)cc1)c1nc(-c2ccc(F)cc2)cs1 | 650 nM
71 | CC(=O)Nc1cccc(/C=C/C(=O)N2CCC(N3CCCCC3)CC2)c1 | 1050 nM
72 | Cc1nc(-c2cccc(Nc3nccc(NCC(O)c4ccccc4C)n3)c2)cs1 (stereo unspecified) | 890 nM
73 | COC(=O)c1ccc(CC(C)NCC(O)c2cccc(OCc3ccccc3)c2)cc1 (stereo unspecified) | 1160 nM
74 | CCCN(CCC)S(=O)(=O)c1ccc(C(=O)Nc2nc3ccc(-c4cc(=O)[nH]c(Nc5ccccc5Cl)n4)cc3[nH]2)cc1 | 594 nM
75 | Cc1cc(NCCc2ccccc2)nc(NC(=N)Nc2cccc(Cl)c2)n1 | 181 nM
76 | Oc1ccccc1CCNC1CCc2ccccc2C1 (stereo unspecified) | 928 nM
77 | O=S(=O)(Nc1ccc2nccc(N3CCNCC3)c2c1)c1ccc(-c2ccccc2)cc1 | 977 nM
78 | CCOc1ccc(C2CCN(CCCCNC(=O)c3ccc(NC(=O)c4ccc(Cl)cc4)cc3)CC2)c(CC)c1 | 786 nM

Row | SMILES | XC50
79 | CN(C)c1ccc(-c2csc(C(=O)NC3CCN(Cc4ccc(C(C)(C)C)cc4)C3)c2)cc1 (stereo unspecified) | 947 nM
80 | CCOC(=O)C1CCN(CCCNC(=O)/C(=C/C=C/c2cc3cc(Cl)c(Cl)cc3[nH]2)OC)CC1 | 1040 nM
81 | COc1ccc(-c2ccc(NC(=O)c3ccc(Cl)cc3)cc2)cc1CN(C)CCO | 813 nM
82 | O=c1ccc(CNc2nc(NCCc3ccccc3)nc3cc(Cl)ccc23)c[nH]1 | 298 nM
83 | CCCS(=O)(=O)c1nc(S(=O)(=O)c2ccc(Cl)cc2)c(N2CCCCC2)s1 | 1290 nM
84 | CC(C)(C)c1ccc(Cc2cccc3nc(N)nc(N)c23)cc1 | 834 nM
85 | Cc1cc(N2CCCC2)nc(Nc2ccc(NC(=O)c3ccccc3)cc2)n1 | 977 nM
86 | CO/C(=C\C=C\c1cc2cc(Cl)c(Cl)cc2[nH]1)C(=O)NC1CC2CCCC(C1)N2C (stereo unspecified) | 1000 nM
87 | COCCOCCOCCn1ccc2c3c(N)nc(N)nc3ccc21 | 263 nM
88 | CC(C)(C)c1ccc(CNCCOc2ccc(Nc3nnc(-c4ccc(-c5ncc[nH]5)cc4)o3)c3ccccc23)cc1 | 135 nM
89 | CCC1(CC)C(=O)N=C(N2CCCCC2)N(C)C1=O | 303 nM
90 | Cc1noc(C)c1-c1ccc2c(Nc3ccc(C#N)cc3)c(C(N)=O)cnc2c1 | 755 nM
91 | O=C(Nc1ccc([N+](=O)[O-])cc1Br)c1cc2ccccc2nc1Cl | 185 nM
92 | CO/C(=C\C=C\c1cc2cc(Cl)c(Cl)cc2[nH]1)C(=O)NCCCN1CCN(c2cccc(OCC(=O)Nc3ccccc3)c2)CC1 | 504 nM
93 | O=[N+]([O-])c1cccc(CNC2CCN(Cc3ccc(C(F)(F)F)cc3)CC2)c1 | 736 nM
94 | N=c1[nH]c2cccc3ccc4cccc1c4c32 | 918 nM
95 | CCn1cc(CN2CCCC(C(=O)Nc3ccc(-c4nc5ccccc5[nH]4)cc3)C2)c(C)n1 (stereo unspecified) | 802 nM
96 | Cc1nc2c(=O)sc3ccccc3c2n1Cc1ccccc1 | 881 nM
97 | CCN(CC)CCn1c(=N)n(CC(=O)c2ccc(-c3ccccc3)cc2)c2ccccc21 | 1140 nM
98 | O=C(NCCc1ccc(Cl)c(Cl)c1)[C@@H]1CCCN1C(=O)c1ccc(O)c(-c2ccc(Cl)c(Cl)c2)c1 | 550 nM
99 | CCCOc1ccc(NC(=O)c2cccs2)cc1Cl | 859 nM
100 | COc1cc(C(=O)N2CCN(C(C)C)CC2)ccc1CN(C)CCCCN1CCN(c2cccc(Cl)c2Cl)CC1 | 704 nM
101 | c1ccc(-c2nc(Nc3ccncc3)sc2-c2ccccc2)cc1 | 812 nM
